# Measured values as given in patent publication US20240197823A1, “CATIONIC ANTIMICROBIAL PEPTIDES AND USES THEREOF” (priority 2021, published 2024).
# Tests used:
# Format in all cases: cell-based, Pseudomonas aeruginosa
# [1] = tested on: P. aeruginosa strain PA239; experiment: Bactericidal assay in FBS-containing medium (FMP); conditions: within the 3 h of incubation
# Method: (§1) To test whether PAX follow this common mechanism, the experiment initially examined the bactericidal activity of the top selection, PAX E35, against the MDR P. aeruginosa strain PA239 (resistant to all 12 test antibiotics, including colistin, Table 6). Bactericidal properties were assessed using a medium called FMP (FBS, 15%; MHB2, 25%; PBS, 60%) that is more physiologically relevant than MHB2 with the inclusion of saline and fetal bovine serum, a known inhibitory condition for many AMPs [Di Y P et al., 2020; Deslouches B et al., 2005]. […] In addition, E35 killed 2 logs of the bacterial cells within the first minute of treatment at 2 μM and 4 μM, compared to the non-effective tobramycin (FIG. 6B). No bacterial cells survived E35 treatment after 5-10 minutes of incubation. […]
# (§2) Antibacterial assays. […] The bacterial cells were kept in an incubator for 18 hours at 37° C., which is linked to a robotic system that feeds a plate reader every hour with one of 8×96-well plates. This set-up allows the collection of growth kinetic data at A 570 (absorbance at 570 nm) to examine growth inhibition in real time (BioTek Instruments, USA). […] MBC (minimum bactericidal concentration) was determined as the peptide concentration at which complete bacterial killing was observed [Rozek A et al., 2000]. […] Data were analyzed using GraphPad Prism software.
# [2] = tested on: P. aeruginosa strain PA239; experiment: Killing kinetics; conditions: PA239, at 2 μM and 4 μM
# Method: as §1, §2
# [3] = tested on: MDR strain PA239; experiment: Membrane permeabilization, PI incorporation by real-time video imaging; conditions: PA239 at high inoculum (5×10^8 CFU/mL); E35 at 8 μM
# From the text: (§3) Determination of membrane permeabilization. To examine whether the selected peptides kill their bacterial target mainly by membrane permeabilization, this study used PI incorporation by the MDR strain PA239 (5×10^8 CFU/mL) quantitated by flow cytometry (Novocyte, USA) or visualized by video imaging using the digital microscope EVOS M7000 (Thermo-Fisher, USA) in bright field or red fluorescence channel. In the flow cytometry experiments [Deslouches B et al., 2015], bacterial cells were either untreated or treated with different peptide E35 concentrations in MHB2 for 1 hour at 37° C. The bacteria-peptide mixture was washed with PBS using an Eppendorf centrifuge at top speed for 7 minutes and incubated with PI in the dark for 15 min at room temperature. Tobramycin was used as a negative control with a 3-hour long incubation. For video imaging, the broth medium was reduced to 20% in PBS (treated or untreated) to decrease the rate of cell division and PI incorporation assessed over time. Video images were recorded in real time using the 40× objective either in bright field or red fluorescence channel.
# [4] = tested on: MDR strain PA239; experiment: Membrane permeabilization, PI incorporation by flow cytometry; conditions: PA239, 1% triton X-100
# From the text: as §3
Compound,bacterial killing [1],bacterial cells killed within the first minute of treatment [2],PI incorporation by real-time video imaging [3],PI incorporation [4] [%]
NC[C@H]1O[C@H](O[C@H]2[C@H](O)[C@@H](O[C@H]3O[C@H](CO)[C@@H](O)[C@H](N)[C@H]3O)[C@H](N)C[C@@H]2N)[C@H](N)C[C@@H]1O [tobramycin],did not display any substantial bacterial killing,non-effective,did not demonstrate any markedly detectable intracellular PI,
triton X-100,,,,55
